Experimental data taken from paper PMC10249896, “AI-Assisted chemical probe discovery for the understudied Calcium-Calmodulin Dependent Kinase, PNCK” (PLOS Computational Biology, 2023).
Where “and” joins values, the source holds several entries; their conditions need not be identical. Equal values may be shown once. Read-outs that look alike come from different tables or passages of the source.

Key:
[1] = molecular target: T1, GST-tagged PNCK recombinant protein (Homo sapiens, UniProt Q6P2M8); assay: ADP-Glo Kinase Assay, biochemical PNCK inhibitor screen; settings: compound 10uM, 25uM ATP, normalized to DMSO and staurosporine controls; for inhibition at 10 µM: read-out: Avg. Normalized % Inhibition, 10uM, ADP Kinase Glo
T1 construct: GST; purchased Novus NBP1-99886
Description: ADP-Glo Kinase Assay (V6930, Promega) was used to screen the first round of compounds against PNCK. […] Autocamtide-II (GenScript RP10271) was used as the peptide substrate. This peptide was dissolved in water and prepared immediately prior to the assay. Calcium/Calmodulin 10X (Abcam ab189137) solution was used to create a custom kinase buffer: 40mM Tris,pH 7.5; 20mM MgCl2; 0.1mg/ml BSA; 50μM DTT and Ca2+/Calmodulin solution (0.03μg/μl, Calmodulin, 1mM Tris,pH 7.3, 0.5mM CaCl2). […] A standard curve was then done to determine the amount of protein needed to generate a signal in the linear range of the ATP curve. 100ng of PNCK and 2ng of substrate was used per well in the 96-well plate format of this assay. […] Plates were read using the Clariostar Plus. Data was normalized to a DMSO and staurosporine controls.
(§1) Data analysis of ADP Kinase Glo results were carried out per the manufacturer’s instructions. Results were represented as a percent decrease in activity. Data was normalized to staurosporine (positive control) as 100% decrease and DMSO (negative control) as a 0% decrease. Data for NanoBRET was analyzed by dividing the acceptor by the donor emission and […] to obtain raw millibret units (mBU). Background was subtracted using control emission averages. Data was normalized to positive and negative controls of staurosporine and DMSO. Concentration-response curves were plotted in GraphPad Prism 8 and IC50s were extrapolated using non-linear fit with concentrations transformed to logarithmic scale. Baseline was held constant and represented the average mBU of staurosporine controls while the top was constrained to represent the average mBU of DMSO controls. Error bars on dose-response curves represent standard deviations.

[2] = molecular target: T2, PNCK Nano-luciferase fusion (Homo sapiens, UniProt Q6P2M8); assay: NanoBRET Target Engagement Intracellular Kinase Assay, cell-based PNCK binding screen and dose response in HEK293 cells; settings: for IC50: 8-point concentration-response; for NanoBRET binding, result in words: cell-based screen / comparison with parent hit
T2 construct: host or cells: HEK293
T2 sequence (Q6P2M8 whole entry, the tested form may be a part): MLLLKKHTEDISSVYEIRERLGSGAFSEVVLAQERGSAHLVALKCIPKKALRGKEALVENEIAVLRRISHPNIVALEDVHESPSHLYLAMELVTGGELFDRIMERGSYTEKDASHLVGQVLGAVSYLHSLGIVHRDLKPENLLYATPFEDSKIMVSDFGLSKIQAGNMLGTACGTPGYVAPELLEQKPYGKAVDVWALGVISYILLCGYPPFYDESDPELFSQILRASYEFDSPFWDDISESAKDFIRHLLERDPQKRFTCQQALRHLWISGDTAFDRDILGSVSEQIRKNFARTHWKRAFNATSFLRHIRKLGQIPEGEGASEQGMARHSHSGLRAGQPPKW
Description: The NanoBRET Target Engagement Intracellular Kinase Assay (Promega N2520) is a cell-based binding screen which reads loss of BRET signal as a result of target binding. A PNCK Nano-luciferase fusion vector plasmid was generated custom by Promega. The K-10 tracer was used for the assay, as determined by Promega. The plasmid was maxiprepped by Genewiz for use in all future assays. HEK293 cells were seeded in a T175 flask in DMEM with 10% FBS. The following day, cells were counted to 10,000, resuspended in assay media (Optimem with no phenol red, 1% FBS). Plasmid and transfection reagent (Fugene HD, Promega E2311) were added to the mixture and cells were seeded in a white 96-well plate. After 20–24 hours, media was changed, and the assay proceeded according to protocol. K10 tracer was added at the recommended concentration of 1uM while compounds were initially screened at both 10uM and 1uM. Cells incubated with compound at 37 degrees Celsius for a maximum of 2 hours before the plate was read using Clariostar Plus. Data was normalized to Staurosporine and DMSO controls. For compounds selected for further analysis, dose response curves were generated using the same testing protocol but at 8 different concentrations: 24uM, 12uM, 6uM, 3uM, 1.5uM, .75uM 0.375uM and 0.1875uM. UM195 was tested with concentrations from 12uM to 0.09375. Similarly, compounds from the analog by catalog analysis were tested at concentrations from 24uM to 0.1875uM.
as §1

[3] = compound 1uM, HEK293, K10 tracer 1uM, normalized to staurosporine and DMSO, read-out: Avg. Normalized % Inhibition, 1uM, Nanobret
[4] = compound 10uM, HEK293, K10 tracer 1uM, normalized to staurosporine and DMSO, read-out: Avg. Normalized % Inhibition, 10uM, Nanobret

| inhibition at 1 µM [2, 3] [%] | inhibition at 10 µM [2, 4] [%] | SMILES | other results |
| --- | --- | --- | --- |
|  |  | CN([C@@H](Cc1ccc(OS(=O)(=O)c2cccc3cnccc23)cc1)C(=O)N1CCN(c2ccccc2)CC1)S(=O)(=O)c1cccc2cnccc12 [KN-62, reference compound] | inhibition at 10 µM [1]: 100%; inhibition at 1 µM ([2]; HEK293, read-out: Avg. Normalized % Inhibition, 1uM, Nanobret): 31.2%; inhibition at 10 µM ([2]; HEK293, read-out: Avg. Normalized % Inhibition, 10uM, Nanobret): 81.5% |
| 0 | 0 | COc1ccc(CNC(=O)c2cc(C3CC3)[nH]n2)cc1C(=O)O [UM_019] | Avg. Normalized % Inhibition, 10uM, ADP Kinase Glo [1]: Negligible |
| 0 | 0 | COc1ccc(C(=O)/C=C/c2n[nH]c3cc(C(=O)O)ccc23)c(F)c1 [UM_020] | Avg. Normalized % Inhibition, 10uM, ADP Kinase Glo [1]: Negligible |
| 0 | 0 | O=C(O)c1ccc(F)c(S(=O)(=O)Nc2ccc(-c3cnco3)cc2)c1 [UM_021] | inhibition at 10 µM [1]: 33.3% |
| 0 | 10.5 | O=c1nc(CSc2nnc(-c3ccccc3)c3ccccc23)[nH][nH]1 [UM_022] | Avg. Normalized % Inhibition, 10uM, ADP Kinase Glo [1]: Negligible |
| 2.86 | 17.6 | Cc1ccc(F)c(S(=O)(=O)Nc2ccc(-c3nn(C)cc3C(=O)O)cc2)c1 [UM_023] | inhibition at 10 µM [1]: 38.2% |
| 0 | 0 | O=C(O)Cc1ccc(NS(=O)(=O)c2cccc(Cl)c2Cl)cc1 [UM_024] | inhibition at 10 µM [1]: 48.6% |
| 0 | 17.2 | CC(C)(C(=O)O)c1ccc(NS(=O)(=O)c2cc(F)c(F)cc2F)cc1 [UM_025] | inhibition at 10 µM [1]: 75.3% |
| 0 | 0 | CC(C)(CC(=O)Nc1ccc(Oc2ccnc3ccccc23)c(F)c1)C(=O)O [UM_026] | Avg. Normalized % Inhibition, 10uM, ADP Kinase Glo [1]: 76.56% |
| 7.16 | 23 | Cc1ccccc1CN1CCC(CNc2ncnc3sc(C(=O)O)c(C)c23)CC1 [UM_027] | inhibition at 10 µM [1]: 63.9% |
| 3.45 | 16.7 | COc1cc(OC)c(Nc2ncnc3sc(C(=O)O)c(C)c23)cc1Cl [UM_028] | Avg. Normalized % Inhibition, 10uM, ADP Kinase Glo [1]: Negligible |
| 0 | 52 | CC(C)c1ccc(NS(=O)(=O)c2cc(-c3ccc(=O)[nH]n3)ccc2Cl)cc1 [UM_029] | Avg. Normalized % Inhibition, 10uM, ADP Kinase Glo [1]: 81.53% |
| 0 | 11.3 | O=C(O)c1n[nH]c2c1CN(C(=O)c1ccc(N3CCOCC3)cc1)CC2 [UM_030] | Avg. Normalized % Inhibition, 10uM, ADP Kinase Glo [1]: Negligible |
| 13.3 | 14.6 | O=C(O)Cc1cc(C2CCN(C(=O)c3ccc(C(F)(F)F)nc3O)CC2)[nH]n1 [UM_031] | inhibition at 10 µM [1]: 7.65% |
| 0 | 17.4 | COc1cccc([C@@H](C)NC(=O)c2ccc(N3CC(=O)NC3=O)cc2)c1 [UM_032] | Avg. Normalized % Inhibition, 10uM, ADP Kinase Glo [1]: 69.5%; inhibition at 10 µM [1]: > 50% |
| 8.63 | 13.5 | Cc1c(C(=O)O)sc2ncnc(NCc3nncn3CCc3ccccc3)c12 [UM_033] | inhibition at 10 µM [1]: 50.8% |
| 6.51 | 7.78 | O=C(O)c1ccc(-c2nc3c([nH]2)CCN(C(=O)c2cc(C4CC4)n[nH]2)C3)cc1 [UM_034] | inhibition at 10 µM [1]: 51.7% |
| 0 | 13.6 | COc1ccccc1CNc1ncnc2sc(C(=O)O)c(C)c12 [UM_035] | Avg. Normalized % Inhibition, 10uM, ADP Kinase Glo [1]: 75.66% |
|  |  | CNC(=O)[C@@H]1C[C@@H](N)CN1C(=O)CCc1nc(-c2cccnc2)no1 [UM_244] | cell permeability ([2]; stated on testing in NanoBRET assay): not cell permeable |

| inhibition at 1 µM [2, 3] [%] | inhibition at 10 µM [2, 4] [%] | SMILES | other results |
| --- | --- | --- | --- |
| 22.8 | 41.8 | COc1ccccc1N(CCC(N)=O)C(=O)COc1ccc2c(c1)CCCC2=O [UM_249] |  |
| 0 | 0 | CC1CCc2c(sc(NC(=O)c3ccc([N+](=O)[O-])s3)c2C(N)=O)C1 (centres unmarked) [UM_250] |  |
| 63.2 | 91.8 | CC1CCc2c(sc(NC(=O)CSc3ncnc4[nH]cnc34)c2C(N)=O)C1 (centres unmarked) [UM_251] | IC50 ([2]; HEK293): 2.53 µM; Dose-Response Curve Data (NanoBRET signal, replicates) ([2]; Concentration 1.20E-05 M): 4.13 and 4.23 and 4.54 and 4.39; Dose-Response Curve Data (NanoBRET signal, replicates) ([2]; Concentration 1.50E-06 M): 6.59 and 7.07 and 6.74 and 7.03; Dose-Response Curve Data (NanoBRET signal, replicates) ([2]; Concentration 1.88E-07 M): 7.33 and 7.01 and 6.90 and 7.62; Dose-Response Curve Data (NanoBRET signal, replicates) ([2]; Concentration 2.40E-05 M): 4.23 and 3.92 and 4.54 and 4.39; Dose-Response Curve Data (NanoBRET signal, replicates) ([2]; Concentration 3.00E-06 M): 6.43 and 6.10 and 6.50 and 6.24; Dose-Response Curve Data (NanoBRET signal, replicates) ([2]; Concentration 3.75E-07 M): 7.22 and 7.21 and 7.00 and 7.10; Dose-Response Curve Data (NanoBRET signal, replicates) ([2]; Concentration 6.00E-06 M): 4.64 and 5.22 and 4.89 and 5.32; Dose-Response Curve Data (NanoBRET signal, replicates) ([2]; Concentration 7.50E-07 M): 7.22 and 6.99 and 7.34 and 6.94; NanoBRET binding, result in words [2]: improving from the IC50 of UM_228 by one order of magnitude |
| 4.54 | 55.6 | N#Cc1cnc(Sc2nnc(-c3ccccc3)o2)cn1 [UM_253] |  |
| 0 | 1.24 | CC1CCc2c(sc(NC(=O)c3cccs3)c2C(N)=O)C1 (centres unmarked) [UM_255] |  |
| 2.86 | 51 | N#Cc1cnc(Sc2nnc(C3CCCCC3)o2)cn1 [UM_256] |  |
| 15.2 | 48.6 | O=C1CCCN1CC(O)COc1ccc2c3c(c(=O)oc2c1)CCCCC3 (centres unmarked) [UM_257] |  |
| 27.9 | 74 | O=C1CNC(=O)N1CCCOc1ccc2c3c(c(=O)oc2c1)CCCCC3 [UM_258] |  |
| 4.8 | 31.2 | CC1(C)CCc2c(sc(NC(=O)c3ccc(Cl)s3)c2C(N)=O)C1 [UM_260] |  |
| 21.5 | 63.5 | c1ccc2c(-c3nnc(Sc4cnccn4)o3)cccc2c1 [UM_265] |  |
| 29 | 45.5 | O=c1[nH]c2ccccc2n2c(SCCCn3c(=O)[nH]c4ccccc43)nnc12 [UM_273] |  |
| 34.2 | 71.8 | CCn1c(SCCCn2c(=O)[nH]c3ccccc32)n[nH]c1=O [UM_274] | IC50 ([2]; HEK293): 10.3 µM |
| 12 | 52.2 | Cc1nnc(SCCCn2c(=O)[nH]c3ccccc32)n1N [UM_275] |  |
| 10.9 | 37.8 | CCc1nc(N)nc(SCCCn2c(=O)[nH]c3ccccc32)n1 [UM_276] |  |
| 37.1 | 68.6 | Cc1nc2c3ccccc3nc(SCCCn3c(=O)[nH]c4ccccc43)n2n1 [UM_277] | IC50 ([2]; HEK293): 16.1 µM |
| 10.9 | 23.6 | O=c1[nH]c(CSc2ncccn2)nc2ccc(Cl)cc12 [UM_278] | NanoBRET binding, result in words [2]: did not demonstrate significantly improved binding |
| 5.1 | 23.4 | O=c1[nH]c(CSc2ccccc2)nc2ccc(Cl)cc12 [UM_279] | NanoBRET binding, result in words [2]: did not demonstrate significantly improved binding |
| 33.4 | 74.7 | O=c1[nH]c(CSc2nc3ccccc3o2)nc2ccc(Cl)cc12 [UM_280] | IC50 ([2]; HEK293): 14.9 µM; NanoBRET binding, result in words [2]: did not demonstrate significantly improved binding |
| 26.6 | 54.5 | O=c1[nH]c(CSc2ccc3ccccc3n2)nc2ccccc12 [UM_281] |  |
